From patent US20080182859A1 (Curis, Inc., priority 2006, published 2008)
pEC50: −log10 of the molar value. Counter-ions that a name gives are not always drawn.

Key:
C57BL/6 male mice [1] = assay: DHT-induced alopecia (mouse model of male pattern baldness); format: in vivo; settings: C57BL/6 male mice with subcutaneous DHT pellet (2.5 mg 21 day), dosed topically once, visually graded for hair regrowth
Experimental: (§1) A mouse model of male pattern baldness is used to investigate the effectiveness of the present compounds for growing hair. Agonists for the sonic hedgehog pathway that act by binding and activating Smoothened were tested in a formulation of 50:30:20 PG:EtOH:water or 5:95 DMSO:acetone vehicle. C57BL/6 male mice (48-52 days old on arrival) from Charles River Labs were used on the study. The mice were housed and cared for according to established procedures. Food and water were ad libitum. On Day 0, the mice were shaved on their lower back, an area of ˜1.5 inches x ˜2 inches with Wahl clippers using a surgical blade. On day −3, the mice were anesthetized with isoflurane, their back was rinsed with a pad of 70% ethanol, a placebo pellet or a DHT pellet (2.5 mg 21 day pellet) were implanted subcutaneously between the shoulder blades with a 10 gauge trochar. DHT pellet transplantation results in maintenance of existing hair follicles in the resting (telogen) phase. The hole was stapled with a sterile autoclip and the mice were returned to their cage after awaking. The mice were dosed topically once and visually graded daily, except weekends, for melanogenesis and hair regrowth of fur in the dosed area (Table 4).
In the absence of treatment with the present compounds, the follicles remain in telogen rather than following the normal time course of the mouse hair cycle.

C57BL/6 male mice [2] = assay: C57BL/6 hair growth after topical dosing; format: in vivo, mouse; settings: shaved lower back, dosed topically once, visually graded for melanogenesis and hair regrowth
Experimental: as §1

sonic hedgehog pathway [3] = assay: Hedgehog pathway Gli-luciferase reporter assay, TM3 cells; format: cell-based; settings: TM3 mouse Leydig cells
Method in brief: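 Reporter cells stably selected after gli-luciferase plasmid transfection; test article dosed over 11 points (1:3). Read as luminescence after 24 h treatment in 0.5% serum; activity >20% AMAX versus plate controls deemed active.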

sonic hedgehog pathway [4] = assay: Human hedgehog reporter assay Daoy-GliLuc (DGL); format: cell-based; settings: Daoy human medulloblastoma cells, Gli-luciferase reporter; read-out: Daoy Avg. EC50
Method in brief: (§2)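 Stable Gli-promoter luciferase reporter lines (human HepM, Daoy; mouse S12) plated at 10,000–20,000 cells/well, switched to 0.5% FBS after 48–72 h, then given compound (1–5 μM; 11-point 1:3 dose curves) with or without octyl-modified hedgehog protein (1–5 ng/ml) for 24 h. Luminescence read; AMAX vs plate controls and EC50 derived.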

sonic hedgehog pathway [5] = assay: Hedgehog pathway Gli-luciferase reporter assay, S12 cells; format: cell-based; settings: S12 mouse embryonic mesenchymal cells, read-out: S12 Avg. EC50
Method in brief: as §2

sonic hedgehog pathway [6] = assay: Human hedgehog reporter assay HEPM-GliLuc (HGL); format: cell-based; settings: HepM human embryonic palatal mesenchymal cells, Gli-luciferase reporter
Method in brief: as §2

pEC50 (sonic hedgehog pathway [3]) | pEC50 (sonic hedgehog pathway [4]) | SMILES | Androgenetic Alopecia (C57BL/6 male mice [1]) | C57BL/6 Hair Growth (C57BL/6 male mice [2]) | pEC50 (sonic hedgehog pathway [5]) | pEC50 (sonic hedgehog pathway [6])
 |  | CN[C@H]1CC[C@H](N(Cc2cc(-c3ccnc(C)c3)ccc2OC)C(=O)c2sc3ccccc3c2Cl)CC1 | yes | yes |  | 
 |  | CN[C@H]1CC[C@H](N(Cc2cc(-c3ccc(N)nc3)ccc2OC)C(=O)c2sc3cccc(F)c3c2Cl)CC1 | yes | yes |  | 
 |  | CN[C@H]1CC[C@H](N(Cc2cc(-c3ccc(S(C)(=O)=O)cc3)ccc2OC)C(=O)c2sc3ccccc3c2Cl)CC1 | yes | yes |  | 
 |  | CCOc1ccc(-c2ccc(C)nc2)cc1CN(C(=O)c1sc2ccccc2c1Cl)[C@H]1CC[C@H](NC)CC1 |  | yes |  | 
 |  | CN[C@H]1CC[C@H](N(Cc2cc(-c3ccnc(C(=O)N(C)C)c3)ccc2OC)C(=O)c2sc3c(F)ccc(F)c3c2Cl)CC1 | yes | yes |  | 
 |  | CNC1CCC(N(Cc2cc(-c3ccncc3)ccc2OC)C(=O)c2sc3ccccc3c2Cl)CC1 (centres unmarked) | yes | yes |  | 
 |  | CN[C@H]1CC[C@H](N(Cc2cc(-c3ccc(NS(C)(=O)=O)nc3)ccc2OC)C(=O)c2sc3c(F)ccc(F)c3c2Cl)CC1 |  | yes |  | 
 |  | CCOc1ccc(-c2ccc(C#N)cc2)cc1CN(C(=O)c1sc2ccccc2c1Cl)[C@H]1CC[C@H](NC)CC1 |  | yes |  | 
 |  | CN[C@H]1CC[C@H](N(Cc2cc(-c3ccnc(C(=O)O)c3)ccc2OC)C(=O)c2sc3c(F)ccc(F)c3c2Cl)CC1 |  | no |  | 
> 7.30 | > 7.30 | CN[C@H]1CC[C@@H](N(Cc2cc(-c3ccc(C(C)=O)cc3)ccc2OC)C(=O)c2sc3c(F)ccc(F)c3c2Cl)CC1 [Compound 332, 3-Chloro-4,7-difluoro-benzo[b]thiophene-2-carboxylic acid (4′-acetyl-4-methoxy-biphenyl-3-ylmethyl)-(4-methylamino-cyclohexyl)-amide hydrochloride] |  |  | > 7.30 | > 7.30
> 7.30 | > 7.30 | CN[C@H]1CC[C@@H](N(Cc2cc(-c3ccc(C(=O)N(C)C)cc3)ccc2OC)C(=O)c2sc3c(F)ccc(F)c3c2Cl)CC1 [Compound 333, 3-Chloro-4,7-difluoro-benzo[b]thiophene-2-carboxylic acid (4′-dimethylcarbamoyl-4-methoxy-biphenyl-3-ylmethyl)-(4-methylamino-cyclohexyl)-amide hydrochloride] |  |  | > 7.30 | > 7.30
> 7.30 | > 7.30 | CN[C@H]1CC[C@@H](N(Cc2cc(-c3ccc(C)nc3)ccc2OC)C(=O)c2sc3c(F)ccc(F)c3c2Cl)CC1 [Compound 334, 3-Chloro-4,7-difluoro-benzo[b]thiophene-2-carboxylic acid [2-methoxy-5-(6-methyl-pyridin-3-yl)-benzyl]-(4-methylamino-cyclohexyl)-amide bis(trifluoroacetate)] |  |  | > 7.30 | > 7.30
> 7.30 | > 7.30 | CN[C@H]1CC[C@@H](N(Cc2cc(-c3ccc(S(C)(=O)=O)cc3)ccc2OC)C(=O)c2sc3c(F)ccc(F)c3c2Cl)CC1 [Compound 335, 3-Chloro-4,7-difluoro-benzo[b]thiophene-2-carboxylic acid (4′-methanesulfonyl-4-methoxy-biphenyl-3-ylmethyl)-(4-methylamino-cyclohexyl)-amide hydrochloride] |  |  | > 7.30 | > 7.30
> 7.30 | > 7.30 | CN[C@H]1CC[C@@H](N(Cc2cc(-c3ccc(N(C)C(C)=O)cc3)ccc2OC)C(=O)c2sc3c(F)ccc(F)c3c2Cl)CC1 [Compound 336, 3-Chloro-4,7-difluoro-benzo[b]thiophene-2-carboxylic acid [4′-(acetyl-methyl-amino)-4-methoxy-biphenyl-3-ylmethyl]-(4-methylamino-cyclohexyl)-amide hydrochloride] |  |  | > 7.30 | > 7.30
> 7.30 | > 7.30 | CN[C@H]1CC[C@@H](N(Cc2cc(-c3ccc(CO)cc3)ccc2OC)C(=O)c2sc3c(F)ccc(F)c3c2Cl)CC1 [Compound 338, 3-Chloro-4,7-difluoro-benzo[b]thiophene-2-carboxylic acid (4′-hydroxymethyl-4-methoxy-biphenyl-3-ylmethyl)-(4-methylamino-cyclohexyl)-amide trifluoroacetate] |  |  | > 7.30 | > 7.30
> 7.30 | > 7.30 | CN[C@H]1CC[C@@H](N(Cc2cc(-c3ccncc3)ccc2OC)C(=O)c2sc3c(F)ccc(F)c3c2Cl)CC1 [Compound 342, 3-Chloro-4,7-difluoro-benzo[b]thiophene-2-carboxylic acid (2-methoxy-5-pyridin-4-yl-benzyl)-(4-methylamino-cyclohexyl)-amide dihydrochloride] |  |  | > 7.30 | > 7.30
> 7.30 | > 7.30 | CN[C@H]1CC[C@@H](N(Cc2cc(-c3ccc(C(N)=O)cc3)ccc2OC)C(=O)c2sc3cccc(F)c3c2Cl)CC1 [Compound 346, 3-Chloro-4-fluoro-benzo[b]thiophene-2-carboxylic acid (4′-carbamoyl-4-methoxy-biphenyl-3-ylmethyl)-(4-methylamino-cyclohexyl)-amide hydrochloride] |  |  | > 7.30 | > 7.30
> 7.30 | > 7.30 | CN[C@H]1CC[C@@H](N(Cc2cc(-c3ccnc(C)c3)ccc2OC)C(=O)c2sc3cccc(F)c3c2Cl)CC1 [Compound 348, 3-Chloro-4-fluoro-benzo[b]thiophene-2-carboxylic acid [2-methoxy-5-(2-methyl-pyridin-4-yl)-benzyl]-(4-methylamino-cyclohexyl)-amide bis(trifluoroacetate)] |  |  | > 7.30 | > 7.30
> 7.30 | > 7.30 | CNc1cc(-c2ccc(OC)c(CN(C(=O)c3sc4c(F)ccc(F)c4c3Cl)[C@H]3CC[C@@H](NC)CC3)c2)ccn1 [Compound 357, 3-Chloro-4,7-difluoro-benzo[b]thiophene-2-carboxylic acid [2-methoxy-5-(2-methylamino-pyridin-4-yl)-benzyl]-(4-methylamino-cyclohexyl)-amide bis(trifluoroacetate)] |  |  | > 7.30 | > 7.30
> 7.30 | > 7.30 | CN[C@H]1CC[C@@H](N(Cc2cc(-c3ccncc3)ccc2OC)C(=O)c2sc3cccc(F)c3c2Cl)CC1 [Compound 359, 3-Chloro-4-fluoro-benzo[b]thiophene-2-carboxylic acid (2-methoxy-5-pyridin-4-yl-benzyl)-(4-methylamino-cyclohexyl)-amide dihydrochloride] |  |  | > 7.30 | > 7.30
> 7.30 | > 7.30 | CN[C@H]1CC[C@@H](N(Cc2cc(-c3cccnc3)ccc2OC)C(=O)c2sc3c(F)ccc(F)c3c2Cl)CC1 [Compound 361, 3-Chloro-4,7-difluoro-benzo[b]thiophene-2-carboxylic acid (2-methoxy-5-pyridin-3-yl-benzyl)-(4-methylamino-cyclohexyl)-amide dihydrochloride] |  |  | > 7.30 | > 7.30
> 7.30 | > 7.30 | CN[C@H]1CC[C@@H](N(Cc2cc(-c3ccccn3)ccc2OC)C(=O)c2sc3c(F)ccc(F)c3c2Cl)CC1 [Compound 367, 3-Chloro-4,7-difluoro-benzo[b]thiophene-2-carboxylic acid (2-methoxy-5-pyridin-2-yl-benzyl)-(4-methylamino-cyclohexyl)-amide dihydrochloride] |  |  | > 7.30 | > 7.30
> 7.30 | > 7.30 | CN[C@H]1CC[C@H](N(Cc2cc(-c3ccnc(C(=O)OC)c3)ccc2OC)C(=O)c2sc3c(F)ccc(F)c3c2Cl)CC1 [Compound R5, Methyl 4-(3-{[(3-chloro-4,7-difluoro-benzo[b]thiophene-2-carbonyl)-(4-methylamino-cyclohexyl)-amino]-methyl}-4-methoxy-phenyl)-pyridine-2-carboxylate] |  |  | > 7.30 | > 7.30
> 7.30 | > 7.30 | CN[C@H]1CC[C@@H](N(Cc2cc(-c3ccnc(C(=O)N(C)C)c3)ccc2OC)C(=O)c2sc3c(F)ccc(F)c3c2Cl)CC1 [Compound R9, 4-(3-{[(3-Chloro-4,7-difluoro-benzo[b]thiophene-2-carbonyl)-(4-methylamino-cyclohexyl)-amino]-methyl}-4-methoxy-phenyl)-pyridine-2-carboxylic acid dimethylamide dihydrochloride] |  |  | > 7.30 | > 7.30
